Laboratory results reported in patent US20240400983A1, “CELL AGGREGATE INCLUDING PITUITARY HORMONE-PRODUCING CELLS AND METHOD FOR PRODUCING SAME” (Sumitomo Pharma Co., Ltd., priority 2021, published 2024).
No end group written: not given here.

Key:
[1] = tested on: cell aggregates from human iPS cells; test: Comparison of SAG treatment period on ACTH secretion capacity of cell aggregates from human iPS cells; type: cell-based; details: SAG until day 30 versus continued after day 30 (days 61, 103, 131)
Description: Cell aggregates containing hypothalamic cells, pituitary progenitor cells, and pituitary hormone-producing cells were produced using the same differentiation induction method as in Example 1 (method without cell sorting using anti-EpCAM antibody). Regarding the SAG treatment period, two groups of a group in which SAG is added from immediately after the start of differentiation induction until day 30 (see FIG. 2), and a group so in which SAG is added from immediately after the start of differentiation induction and after day 30 (until days 61, 103, and 131) were set, and the ACTH secretion capacity was compared.

[2] = tested on: cell aggregates containing pituitary hormone-producing cells (reaggregated EpCAM-positive cells from human ES cells); test: ACTH stimulation test using CRH or dexamethasone on reaggregated EpCAM-positive cell aggregates (ACTH ELISA of culture supernatant); type: cell-based; details: 24 hr
Description: An ACTH stimulation test using CRH (manufactured by NIPRO ES PHARMA CO., LTD.) was performed using cell aggregates obtained by purifying and reaggregating cell aggregates on day 62 after the start of differentiation induction and suspension culturing for 41 days. Twenty cell aggregates were transferred to a 10 cm suspension culture dish containing a serum-free medium (10 mL) supplemented with 20% KSR, cultured for 24 hr under condition of 37° C., 40% 02, and the culture supernatant was recovered. The cell aggregates were washed with a serum-free medium supplemented with 20% KSR, transferred to a new 10 cm suspension culture dish containing a serum-free medium (10 mL) supplemented with 20% KSR, and CRH 5 μg/mL was added. After culturing for 24 hr under condition of 37° C., 40% O2, the culture supernatant was recovered. The ACTH concentration in the collected culture supernatant was measured by the ELISA method used in clinical testing (testing outsourced to SRL, Inc.).
In addition, the response of EpCAM-positive cell reaggregates to hormones was also examined. On day 60 after the start of differentiation induction, cell sorting was performed using an anti-EpCAM antibody, and then EpCAM-positive cells were reaggregated and cultured until day 103 after the start of differentiation induction. Thereafter, an ACTH stimulation test using CRH (manufactured by NIPRO ES PHARMA CO., LTD.) or dexamethasone (DX, manufactured by Aspen Japan K.K.) was conducted. Specifically, 20 cell aggregates were transferred to a 10 cm suspension culture dish containing 10 mL of serum-free medium supplemented with 20% KSR, and after culturing for 24 hr under conditions of 37° C., 40% 02, the culture supernatant was recovered. […] The ACTH concentration in the recovered culture supernatant was measured by the ELISA method used in clinical testing (testing outsourced to SRL, Ltd.). […]

hypopituitary mice = test: Transplantation of EpCAM-positive cell reaggregates under the kidney capsule of hypopituitary mice; blood ACTH with CRH, dexamethasone or LPS stimulation; type: in vivo, mouse; design: dose or concentration left out as unconfirmed; details: CRH intraperitoneal; blood 1 hr after; 4, 12, 24 weeks after transplantation
Description: Thereafter, the cells were cultured up to day 107 after the start of differentiation induction and transplanted to under the capsule of the left kidney of hypopituitary mice (10-17 weeks old) whose pituitary was surgically removed (transplantation group). A control group (sham group) was also set in which only the transplantation procedure was performed and no EpCAM-positive cells were transplanted. In addition, hypopituitary mice whose pituitary gland was surgically removed were produced by performing using a transaural approach on SCID mice (7-9 weeks old, male). […] CRH stimulation was applied to the transplantation group and the sham group, and the effect on ACTH secretion capacity was examined. Specifically, mice were administered with CRH (2 pg/kg, intraperitoneal administration) 4, 12, or 24 weeks after transplantation, and blood was collected before CRH administration and 1 hr after CHR administration. Each blood ACTH concentration was measured using ACTH ELISA kit (MD Bioproducts).

[3] = tested on: cell aggregates containing pituitary hormone-producing cells (day 63 sort, DX treated for 14 days); test: GH stimulation test using GRF and GH suppression test using somatostatin; type: cell-based, human; details: day 63 sort + 40 days, DX 14 days; GRF 2 μg/mL, 24 hr
Description: Using cell aggregates obtained by purifying and reaggregating cell aggregates on day 63 after the start of differentiation induction, suspension culturing for 40 days, and treating with DX for 14 days, a GH stimulation test using GRF and a GH suppression test using somatostatin were conducted. Fifteen cell aggregates were transferred to a 6-well culture plate (manufactured by SUMITOMO BAKELITE CO., LTD., for suspension culturing, culture area 9.2 cm^2) containing a serum-free medium (2 mL) supplemented with 20% KSR, cultured for 24 hr under conditions of 37° C., 40% O2, and the culture supernatant was recovered. The cell aggregates were washed with a serum-free medium supplemented with 20% KSR, transferred to a 6-well culture plate containing a new serum-free medium (2 mL) supplemented with 20% KSR, and GRF 2 μg/mL or somatostatin 100 ng/mL was added. After culturing for 24 hr under condition of 37° C., 40% O2, the culture supernatant was recovered. […]

CNC1CCC(N(Cc2cccc(-c3ccncc3)c2)C(=O)c2sc3ccccc3c2Cl)CC1 (stereo not drawn) [SAG, N-Methyl-N′-(3-pyridinylbenzyl)-N′-(3-chlorobenzo[b]thiophene-2-carbonyl)-1,4-diaminocyclohexane]
ACTH secretion capacity depending on SAG treatment period [1]: improved by stopping SAG treatment on day 30

C[C@@H]1C[C@H]2[C@@H]3CCC4=CC(=O)C=C[C@]4(C)[C@@]3(F)[C@@H](O)C[C@]2(C)[C@@]1(O)C(=O)CO [dexamethasone]
decrease of ACTH secretion amount by dexamethasone stimulation ([2]; day 60 sort, cultured to day 103, 500 ng/mL dexamethasone): about 50%

CRH: CRH (manufactured by NIPRO ES PHARMA CO., LTD.) used for the ACTH stimulation test (SEEPPISLDLTFHLLREVLEMARAEQLAQQAHSNRKLMEII; ends and bridges not checked; UniProt P06850 154-194, looked up)
increase of ACTH secretion amount by CRH stimulation ([2]; day 60 sort, cultured to day 103, 5 μg/mL CRH): about 2.2 times | increase of the amount of ACTH secretion by addition of CRH ([2]; day 62 sort + 41 days suspension culture, CRH 5 μg/mL): a little less than two times | blood ACTH concentration after CRH stimulation in transplantation group (hypopituitary mice): further increase

GRF: GRF used for the GH stimulation test (YADAIFTNSYRKVLGQLSARKLLQDIMSRQQGESNQERGARARL; ends and bridges not checked; UniProt P01286 32-75, looked up)
increase of the amount of GH secretion by addition of GRF [3]: a little less than two times
